Experimental data from patent publication US11072588B2, “Barbituric acid derivatives comprising cationic and lipophilic groups” (UNIVERSITETET I TROMSØ—NORGES ARKTISKE UNIVERSITET, priority 2017, dated 2021).
≈ marks a conversion by molar mass, not a printed value. Read-outs that look alike come from different tables or passages of the source.

Assays:
S. epidermidis = test: Anti-biofilm activity (inhibition of biofilm formation); format: cell-based; details: Staphylococcus epidermidis, read-out: Anti-biofilm IC50
[1] = system: antibiotic susceptible Gram-positive and Gram-negative reference strains; test: MIC assay, ranges over the reference strains; format: cell-based
Method: (§1) Working solutions of the test derivatives were prepared with up to 100% DMSO and stored at −20° C. If necessary, the solutions were heated to 40-80° C. before testing to facilitate complete dissolution. Double-distilled water was used in all dilutions prepared. […] A microdilution susceptibility test was used for MIC determination according to Clinical and Laboratory Standards Institute, “Methods for Dilution Antimicrobial Sisceptibility Tests for Bacteria That Graw Aerobically”, Approved Standard M07-A9, edition 2012, with modifications as described by Igumnova et al (Bioorg Med Chem, 2016, 24 (22), 5884-5894).
(§2) Briefly, the bacterial inoculum was adjusted to approximately 2.5-3×10^4 cells/mL in Mueller-Hinton broth (MHB, Difco Laboratories, USA), and incubated in a ratio of 1:1 with test derivatives in polystyrene 96-well flat-bottom microplates (NUNC, Roskilde, Denmark). Positive growth control (without test derivatives) and negative control (without bacteria) were included. The reference antibiotic was oxytetracycline hydrochloride (Sigma Aldrich, Saint Louis, Mo., USA). The microplates were incubated in an EnVision microplate reader (Perkin-Elmer, Turku, Finland) placed in an incubator set to 35° C. for 48 h. The MIC value was defined as the lowest concentration of derivative resulting in no bacterial growth as determined by OD600 measurement. All derivatives were tested in three parallels.

E. coli 50579417 = test: MIC, multi-resistant clinical isolate; format: cell-based, Escherichia coli; details: for MIC: Escherichia coli, read-out: Antimicrobial activity (MIC); for selectivity index (EC50/MIC): RBC EC50 / MIC
E. coli 50639799 = test: MIC, multi-resistant clinical isolate; format: cell-based, Escherichia coli; details: for MIC: Escherichia coli, read-out: Antimicrobial activity (MIC); for selectivity index (EC50/MIC): RBC EC50 / MIC
E. coli 50857972 = test: MIC, multi-resistant clinical isolate; format: cell-based, Escherichia coli; details: for MIC: Escherichia coli, read-out: Antimicrobial activity (MIC); for selectivity index (EC50/MIC): RBC EC50 / MIC
[2] = Determination of haemolytic activity; format: cell-based; details: human red blood cells (washed, from heparinized fresh blood); human RBCs, 1 h, 37° C.; read-out: RBC: haemolytic activity against human RBCs (EC50)
Method: Hemolysis was determined using a heparinized fraction (1000 IU/mL) of freshly drawn blood. Blood collected in EDTA containing test tubes (Vacutest®, KIMA, Arzergrande, Italy) was used for determination of the hematocrit (hct). The heparinized blood was washed 3× with pre-warmed PBS and adjusted to a final hct of 4%. Derivatives in DMSO (50 mM) were added to a 96-well polypropylene V-bottom plate (NUNC, Fisher Scientific, Oslo, Norway) and serially diluted. The test concentration range was 500-4 μM with DMSO contents ≤1%. A solution of 1% triton X-100 was used as positive control for 100% hemolysis. As negative control a solution of 1% DMSO in PBS buffer was included. No signs of DMSO toxicity were detected. RBCs (1% v/v final concentration) were added to the well plate and incubated at 37° C. and 800 rpm for 1 h. After centrifugation (5 min, 3000 g), 100 μL of each well were transferred to a 96-well flat bottom plate and absorbance was measured at 545 nm with a microplate reader (VersaMax™, Molecular Devices, Sunnyvale, Calif., USA). The percentage of hemolysis was calculated as the ratio of the absorbance in the derivative-treated and surfactant treated samples, corrected for the PBS background. Three independent experiments were performed and EC50 values are presented as averages.

K. pneumoniae 50531633 = test: MIC, multi-resistant clinical isolate; format: cell-based, Klebsiella pneumoniae; details: K. pneumoniae 50531633, resistant to colistin; for MIC: Klebsiella pneumoniae, 24 h, read-out: Antimicrobial activity (MIC); for selectivity index (EC50/MIC): RBC EC50 / MIC
Method: as §1, §2
(§3) The MIC was determined as explained above with some exceptions; working solutions of test derivatives were prepared from concentrated DMSO stocks stored at room temperature, the density of the bacterial inoculum was increased 40× to 1-1.2×10^6 cells/mL, enterococci were incubated in Brain Heart Infusion broth (BHIB, Difco Laboratories, USA), the microplates were incubated for 24 h, and the derivatives were tested in four parallels.

K. pneumoniae K47-25 = test: MIC, multi-resistant clinical isolate; format: cell-based, Klebsiella pneumoniae; details: for MIC: Klebsiella pneumoniae, K4725, 24 h, read-out: Antimicrobial activity (MIC); for selectivity index (EC50/MIC): RBC EC50 / MIC
Method: as §1, §2, §3

K. pneumoniae 50625602 = test: MIC, multi-resistant clinical isolate; format: cell-based, Klebsiella pneumoniae; details: for MIC: Klebsiella pneumoniae, read-out: Antimicrobial activity (MIC); for selectivity index (EC50/MIC): RBC EC50 / MIC
Method: as §1, §2, §3

[3] = system: Pseudomonas aeruginosa PA01, DSM 19880 (ATCC 15692); test: MIC assay, antibiotic susceptible reference strain; format: cell-based; details: Pseudomonas aeruginosa, read-out: Antimicrobial activity (MIC) P. a
Method: as §1, §2

[4] = system: Corynebacterium glutamicum ATCC 13032; test: MIC assay, antibiotic susceptible reference strain; format: cell-based; details: Corynebacterium glutamicum, ATCC13032, read-out: Antimicrobial activity (MIC) C. g
Method: as §1, §2

[5] = system: Staphylococcus aureus ATCC 9144; test: MIC assay, antibiotic susceptible reference strain; format: cell-based; details: Staphylococcus aureus, ATCC9144, read-out: Antimicrobial activity (MIC) S. a
Method: as §1, §2

[6] = system: Escherichia coli ATCC 25922; test: MIC assay, antibiotic susceptible reference strain; format: cell-based; details: Escherichia coli, ATCC25922, read-out: Antimicrobial activity (MIC) E. c
Method: as §1, §2

E. faecium TUH50-22 = test: MIC, multi-resistant clinical isolate; format: cell-based, Enterococcus faecium; details: for MIC: Enterococcus faecium, TUH5022, read-out: Antimicrobial activity (MIC); for selectivity index (EC50/MIC): RBC EC50 / MIC
Method: as §1, §2, §3

E. faecium 50673722 = test: MIC, multi-resistant clinical isolate; format: cell-based, Enterococcus faecium; details: for MIC: Enterococcus faecium, read-out: Antimicrobial activity (MIC); for selectivity index (EC50/MIC): RBC EC50 / MIC
Method: as §1, §2, §3

E. faecium 50901530 = test: MIC, multi-resistant clinical isolate; format: cell-based, Enterococcus faecium; details: for MIC: Enterococcus faecium, read-out: Antimicrobial activity (MIC); for selectivity index (EC50/MIC): RBC EC50 / MIC
Method: as §1, §2, §3

E. faecium 50758899 = test: MIC, multi-resistant clinical isolate; format: cell-based, Enterococcus faecium; details: for MIC: Enterococcus faecium, read-out: Antimicrobial activity (MIC); for selectivity index (EC50/MIC): RBC EC50 / MIC
Method: as §1, §2, §3

E. faecium K36-18 = test: MIC, multi-resistant clinical isolate; format: cell-based, Enterococcus faecium; details: for MIC: Enterococcus faecium, K3618, read-out: Antimicrobial activity (MIC); for selectivity index (EC50/MIC): RBC EC50 / MIC, E. faecium K36-18
Method: as §1, §2, §3

[7] = K. pneumoniae K47-25, resistant to colistin

SMILES | IC50 (S. epidermidis) [µg/mL] | MIC (E. coli 50579417) [µg/mL] | selectivity index (EC50/MIC) (E. coli 50579417) | MIC (E. coli 50639799) [µg/mL] | selectivity index (EC50/MIC) (E. coli 50639799) | MIC (E. coli 50857972) [µg/mL] | selectivity index (EC50/MIC) (E. coli 50857972) | EC50 at 1 h [2] [µg/mL] | MIC (K. pneumoniae 50531633) [µg/mL] | selectivity index (EC50/MIC) (K. pneumoniae 50531633) | selectivity index (EC50/MIC) (K. pneumoniae K47-25; [7]) | MIC (K. pneumoniae 50625602) [µg/mL] | selectivity index (EC50/MIC) (K. pneumoniae 50625602) | MIC [3] [µg/mL] | MIC [4] [µg/mL] | MIC [5] [µg/mL] | MIC [6] [µg/mL] | MIC (E. faecium TUH50-22) [µg/mL] | selectivity index (EC50/MIC) (E. faecium TUH50-22) | MIC (E. faecium 50673722) [µg/mL] | also measured
CC(C)(C)c1cc(CC2(Cc3cc(C(C)(C)C)cc(C(C)(C)C)c3)C(=O)N(CCCCN)C(=O)N(CCCCN)C2=O)cc(C(C)(C)C)c1 [7(iii), 1,3-bis(4-aminobutyl)-5,5-bis(3,5-di-tert-butylbenzyl)-pyrimidin-2,4,6(1H,3H,5H)-trione] | 1 (≈ 1.48 µM) | 4 (≈ 5.93 µM) | (<1) | 4 (≈ 5.93 µM) | (<1) | 4 (≈ 5.93 µM) | (<1) | < 4 | 8 (≈ 11.9 µM) | (<0.5) | (<2.5) | 8 (≈ 11.9 µM) | (<0.5) | 4 (≈ 5.93 µM) | 0.25 (≈ 0.37 µM) | 1 (≈ 1.48 µM) | 2 (≈ 2.96 µM) | 2 (≈ 2.96 µM) | (<2) | 2 (≈ 2.96 µM) | MIC ([1]; range over S. aureus, C. glutamicum, E. coli, P. aeruginosa reference strains, read-out: MIC values against all the reference strains): 0.25 to 4 µg/mL (≈ 0.37 to 5.93 µM); MIC (K. pneumoniae K47-25): 16 µg/mL (≈ 23.7 µM); selectivity index (EC50/MIC) (E. faecium 50673722): (<2); MIC (E. faecium 50901530): 2 µg/mL (≈ 2.96 µM); selectivity index (EC50/MIC) (E. faecium 50901530): (<2); MIC (E. faecium 50758899): 2 µg/mL (≈ 2.96 µM); selectivity index (EC50/MIC) (E. faecium 50758899): (<2); MIC (E. faecium K36-18): 2 µg/mL (≈ 2.96 µM); selectivity index (EC50/MIC) (E. faecium K36-18): (<2)
N=C(N)NCCCCN1C(=O)N(CCCCNC(=N)N)C(=O)C(Cc2cc(Br)cc(Br)c2)(Cc2cc(Br)cc(Br)c2)C1=O [8(ii), 1,1′-(4,4′-(5,5-bis(3,5-dibromobenzyl)-2,4,6-trioxodihydropyrimidine-1,3(2H,4H)-diyl)bis(butane-4,1-diyl))diguanidine] | 1 (≈ 1.18 µM) | 4 (≈ 4.7 µM) | (14) | 4 (≈ 4.7 µM) | (14) | 4 (≈ 4.7 µM) | (14) | 56 (≈ 65.9 µM) | 4 (≈ 4.7 µM) | (14) | (14) | 4 (≈ 4.7 µM) | (14) | 4 (≈ 4.7 µM) | 0.25 (≈ 0.294 µM) | 1 (≈ 1.18 µM) | 2 (≈ 2.35 µM) | 2 (≈ 2.35 µM) | (28) | 4 (≈ 4.7 µM) | MIC ([1]; reference strains, range, read-out: MIC values against the Gram-negative bacteria E. coli and P. aeruginosa): 1 to 4 µg/mL (≈ 1.18 to 4.7 µM); MIC (K. pneumoniae K47-25; [7]): 4 µg/mL (≈ 4.7 µM); selectivity index (EC50/MIC) (E. faecium 50673722): (14); MIC (E. faecium 50901530): 2 µg/mL (≈ 2.35 µM); selectivity index (EC50/MIC) (E. faecium 50901530): (28); MIC (E. faecium 50758899): 4 µg/mL (≈ 4.7 µM); selectivity index (EC50/MIC) (E. faecium 50758899): (14); MIC (E. faecium K36-18): 4 µg/mL (≈ 4.7 µM); selectivity index (EC50/MIC) (E. faecium K36-18): (14)
